System: SOCS3 associated with the insulin receptor (SOCS3/IRβ)
Assay: Ex vivo Western blotting of SOCS3 to IR beta chain ratio in hippocampal formation
Type: cell-based, human
Settings: MCI cases
Description: The data shown are ratios of SOCS3 to IR beta chain (IRβ) in ex vivo Western blotting tests on the hippocampal formation of age- and sex-matched normal (N), non-amnestic mild cognitive impairment (naMCI), amnestic mild cognitive impairment (aMCI), and AD dementia (ADd) cases (n=10 in each group). The basal SOCS3/IRβ levels were highly elevated in naMCI, aMCI, and ADd cases compared to the normal cases. […] Asterisks indicate statistical significance levels for differences within diagnostic groups (*=p<0.05 and *** p=<0.0001).

D-Ala^2 GIP
basal SOCS3/IRβ ratio: highly effective in reducing this ratio

Source: patent US20170112897A1, “METHODS FOR TREATING BRAIN INSULIN RESISTANCE” (priority 2015, published 2017)
